The assay has as its target T1, human 4lg B7-H3 (Homo sapiens, UniProt Q5ZPR3).
T1 sequence (Q5ZPR3 29-534): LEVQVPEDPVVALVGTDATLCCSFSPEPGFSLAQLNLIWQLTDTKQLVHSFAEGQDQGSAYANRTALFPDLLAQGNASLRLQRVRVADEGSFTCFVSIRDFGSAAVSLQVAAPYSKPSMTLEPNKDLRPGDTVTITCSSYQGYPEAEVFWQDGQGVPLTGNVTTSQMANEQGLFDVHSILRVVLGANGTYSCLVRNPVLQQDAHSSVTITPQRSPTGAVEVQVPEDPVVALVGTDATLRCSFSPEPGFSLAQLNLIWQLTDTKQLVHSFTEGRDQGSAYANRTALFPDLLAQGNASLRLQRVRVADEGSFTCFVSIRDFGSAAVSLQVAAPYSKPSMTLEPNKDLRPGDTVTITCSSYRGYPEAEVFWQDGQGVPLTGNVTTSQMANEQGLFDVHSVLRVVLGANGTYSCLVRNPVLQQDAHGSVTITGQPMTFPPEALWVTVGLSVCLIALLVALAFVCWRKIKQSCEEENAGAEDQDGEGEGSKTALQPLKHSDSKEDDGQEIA
Briefly: Affinity determination by surface plasmon resonance (SPR) to 4Ig B7-H3. The conditions noted are these: 4Ig B7-H3. Background: In SPR one partner is held on a chip, and binding of the other changes the refractive index at the surface.

[1] abbreviates: SPR KD—25° C., 25° C. flow cell temperature.
[2] abbreviates: SPR KD—37° C., 37° C. flow cell temperature.

Starred links: 1 amine or outer side, 2 acyl side, 3 side chain; linkers in the order of their positions; H or OH if unused. Positions of bridges follow the written chain, without caps; N, C: chain ends. Non-standard residues stand in square brackets, D forms with d. Residues, ends and D or L forms follow the SMILES beside them. Groups on a side chain read outwards from the residue. *: point of attachment. X4 = O=C(O)CN1CCN(CC(=O)O)CCN([C@H](CCC(=O)*)C(=O)O)CCN(CC(=O)O)CC1; Ala(piperidin-4-yl) = O=C([C@H](CC1CCN([*:3])CC1)N[*:1])[*:2]; DOTA = O=C(O)CN1CCN(CC(=O)O)CCN(CC(=O)*)CCN(CC(=O)O)CC1; Trp(5-F) = N[C@@H](Cc1c[nH]c2ccc(F)cc12)C(=O)O; X1 = C[C@@H](c1ccccc1)[C@H](N[*:1])C(=O)[*:2]; Lys(Me3) = C[N+](C)(C)CCCC[C@H](N)C(=O)O; 1Nal = N[C@@H](Cc1cccc2ccccc12)C(=O)O; Ala(4-THP) = N[C@@H](CC1CCOCC1)C(=O)O; Val(3-OH) = CC(C)(O)[C@H](N)C(=O)O; aThr = C[C@H](O)[C@H](N)C(=O)O; pGlu = O=C1CC[C@@H](C(=O)O)N1; PEG4 = NCCOCCOCCOCCOCCC(=O)O; Tle = CC(C)(C)[C@H](N)C(=O)O; hLeu = CC(C)CC[C@H](N)C(=O)O; αMeP = C[C@@]1(C(=O)O)CCCN1; NMeC = CN[C@@H](CS)C(=O)O; Nle = CCCC[C@H](N)C(=O)O Some results are limits rather than exact numbers.

Broadly, the Kd is a measure of binding affinity in units of concentration. Low readings indicate a tighter complex, high ones a looser complex. Under setting [1], `CC(=O)N[C@@H](CC(C)C)C(=O)N[C@@H](Cc1ccc(O)cc1)C(=O)N[C@H]1CSSC[C@@H](C(=O)N[C@@H](Cc2c[nH]c3ccccc23)C(=O)N[C@@H](Cc2ccccc2)C(=O)N[C@H](C(=O)N[C@H](CCCCNC(=O)CN2CCN(CC(=O)O)CCN(CC(=O)O)CCN(CC(=O)O)CC2)C(N)=O)[C@@H](C)O)NC(=O)[C@H](Cc2ccc(O)cc2)NC(=O)[C@H](C(C)C)NC(=O)[C@H](CC(=O)O)NC(=O)[C@H](Cc2ccc(O)cc2)NC(=O)[C@H](CCCCN)NC(=O)CNC(=O)[C@H](C(C)C)NC1=O` [compound 56, Ac-Leu-Y-C-V-G-K-Y-D-V-Y-C-W-F-Thr-dLys(DOTA)-CONH2] (Ac-LYCVGKYDVYCWFT[dK](DOTA)-NH2; disulfide 3-11) showed a Kd of 10 to 100 nM.

In turn, `CC(=O)N[C@@H](CCC(C)C)C(=O)N[C@@H](Cc1ccc(O)cc1)C(=O)N[C@H]1CSSC[C@@H](C(=O)N[C@@H](Cc2c[nH]c3ccc(F)cc23)C(=O)N[C@@H](Cc2ccccc2)C(=O)N[C@H](C(=O)N[C@H](CCCCNC(=O)CN2CCN(CC(=O)O)CCN(CC(=O)O)CCN(CC(=O)O)CC2)C(N)=O)[C@@H](C)O)NC(=O)[C@H](Cc2ccc(O)cc2)NC(=O)[C@H](C(C)C)NC(=O)[C@H](CC(=O)O)NC(=O)[C@H]([C@H](C)O)NC(=O)[C@H](CCCCN)NC(=O)CNC(=O)[C@H](C(C)C)NC1=O` [compound 178, Ac-hLeu-Y-C-V-G-K-alloThr-D-V-Y-C-5FW-F-Thr-dLys(DOTA)-CONH2] (Ac-[hLeu]YCVGK[aThr]DVYC[Trp(5-F)]FT[dK](DOTA)-NH2; disulfide 3-11) yielded a Kd under setting [1] of 1 to 10 nM. With `CCCC[C@H](NC(=O)[C@H](Cc1c[nH]c2ccc(F)cc12)NC(=O)[C@@H]1CSSC[C@H](NC(=O)[C@H](Cc2ccc(O)cc2)NC(=O)[C@H](CCC(C)C)NC(C)=O)C(=O)N[C@@H](C(C)(C)C)C(=O)NCC(=O)N[C@@H](CCCCN)C(=O)N[C@@H](CC2CCOCC2)C(=O)N[C@@H](CC(=O)O)C(=O)N[C@@H](C(C)C)C(=O)N[C@@H](Cc2ccc(O)cc2)C(=O)N1)C(=O)N[C@H](C(=O)N[C@H](CCCCNC(=O)CN1CCN(CC(=O)O)CCN(CC(=O)O)CCN(CC(=O)O)CC1)C(=O)O)[C@@H](C)O` [compound 333, Ac-hLeu-Y-C-Tbg-G-K-ThpA-D-V-Y-C-5FW-Nle-Thr-dLys(DOTA)-COOH] (Ac-[hLeu]YC[Tle]GK[Ala(4-THP)]DVYC[Trp(5-F)][Nle]T[dK](DOTA)-OH; disulfide 3-11), under setting [1], the Kd was 10 to 100 nM.

Turning to `CC(=O)N[C@@H](CCC(C)C)C(=O)N[C@@H](Cc1ccc(O)cc1)C(=O)N[C@H]1CSSC[C@@H](C(=O)N[C@@H](Cc2c[nH]c3ccc(F)cc23)C(=O)N[C@@H](Cc2ccccc2)C(=O)N[C@H](C(=O)N[C@H](CCCCNC(=O)CN2CCN(CC(=O)O)CCN(CC(=O)O)CCN(CC(=O)O)CC2)C(=O)O)C(C)(C)O)NC(=O)[C@H](Cc2ccc(O)cc2)NC(=O)[C@H](C(C)C)NC(=O)[C@H](CC(=O)O)NC(=O)[C@H](CC2CCOCC2)NC(=O)[C@@H]2CCCN2C(=O)CNC(=O)[C@H](C(C)(C)C)NC1=O` [compound 349, Ac-hLeu-Y-C-Tbg-G-Pro-ThpA-D-V-Y-C-5FW-F-hydroxyVal-dLys(DOTA)-COOH] (Ac-[hLeu]YC[Tle]GP[Ala(4-THP)]DVYC[Trp(5-F)]F[Val(3-OH)][dK](DOTA)-OH; disulfide 3-11), the Kd under setting [2] was in the range of 10 to 100 nM. Still for that read-out and setting: then `CC(=O)N[C@@H](CCC(C)C)C(=O)N[C@@H](Cc1ccc(O)cc1)C(=O)N[C@H]1CSSC[C@@H](C(=O)N[C@@H](Cc2c[nH]c3ccc(F)cc23)C(=O)N[C@H](C(=O)N[C@H](C(=O)N[C@H](C)C(=O)O)C(C)(C)O)[C@@H](C)c2ccccc2)NC(=O)[C@H](Cc2ccc(O)cc2)NC(=O)[C@H](C(C)C)NC(=O)[C@H](CC(=O)O)NC(=O)[C@H](CC2CCN(C(=O)CCOCCOCCOCCOCCNC(=O)CN3CCN(CC(=O)O)CCN(CC(=O)O)CCN(CC(=O)O)CC3)CC2)NC(=O)[C@H](CCCC[N+](C)(C)C)NC(=O)CNC(=O)[C@H](C(C)(C)C)NC1=O` [compound 522, Ac-hLeu-Y-C-Tbg-G-Lys(Me)3-Pip(PEG4-DOTA)Ala-D-V-Y-C-5FW-[(2S, 3S)beta-Me-Phe]-hydroxyVal-dAla-COOH] (Ac-[hLeu]YC[Tle]G[Lys(Me3)][Ala(piperidin-4-yl)]([PEG4-DOTA])DVYC[Trp(5-F)][X1][Val(3-OH)][dA]-OH; disulfide 3-11), with less than 1 nM. In turn, `CC(=O)N[C@@H](CCC(C)C)C(=O)N[C@@H](Cc1ccc(O)cc1)C(=O)N[C@H]1CSSC[C@@H](C(=O)N[C@@H](Cc2c[nH]c3ccc(F)cc23)C(=O)N[C@@H](Cc2ccccc2)C(=O)N2CCC[C@H]2C(=O)N[C@H](CCCCNC(=O)CN2CCN(CC(=O)O)CCN(CC(=O)O)CCN(CC(=O)O)CC2)C(N)=O)NC(=O)[C@H](Cc2ccc(O)cc2)NC(=O)[C@H](C(C)C)NC(=O)[C@H](CC(=O)O)NC(=O)[C@H](CC2CCOCC2)NC(=O)[C@H](CCCCN)NC(=O)CNC(=O)[C@H](C(C)C)NC1=O` [compound 271, Ac-hLeu-Y-C-V-G-K-ThpA-D-V-Y-C-5FW-F-Pro-dLys(DOTA)-CONH2] (Ac-[hLeu]YCVGK[Ala(4-THP)]DVYC[Trp(5-F)]FP[dK](DOTA)-NH2; disulfide 3-11) showed a Kd under setting [1] of less than 1 nM. On the same count and under the same terms, the result for `CC(=O)N[C@@H](CCC(C)C)C(=O)N[C@@H](Cc1ccc(O)cc1)C(=O)N(C)[C@H]1CSSC[C@@H](C(=O)N[C@@H](Cc2c[nH]c3ccc(F)cc23)C(=O)N[C@@H](Cc2ccccc2)C(=O)N[C@H](C(=O)N[C@H](CCCCNC(=O)CN2CCN(CC(=O)O)CCN(CC(=O)O)CCN(CC(=O)O)CC2)C(=O)O)[C@@H](C)O)NC(=O)[C@H](Cc2ccc(O)cc2)NC(=O)[C@H](C(C)C)NC(=O)[C@H](CC(=O)O)NC(=O)[C@H](CC2CCOCC2)NC(=O)[C@H](CCCCN)NC(=O)CNC(=O)[C@H](C(C)C)NC1=O` [compound 361, Ac-hLeu-Y-NMeCys-V-G-K-ThpA-D-V-Y-C-5FW-F-Thr-dLys(DOTA)-COOH] (Ac-[hLeu]Y[NMeC]VGK[Ala(4-THP)]DVYC[Trp(5-F)]FT[dK](DOTA)-OH; disulfide 3-11) reads 1 to 10 nM.

Turning to `CC(=O)N[C@@H](CCC(C)C)C(=O)N[C@@H](Cc1ccc(O)cc1)C(=O)N[C@H]1CSSC[C@@H](C(=O)N[C@@H](Cc2c[nH]c3ccc(F)cc23)C(=O)N[C@@H](Cc2ccccc2)C(=O)N[C@H](C(N)=O)C(C)(C)O)NC(=O)[C@H](Cc2ccc(O)cc2)NC(=O)[C@H](C(C)C)NC(=O)[C@H](CC(=O)O)NC(=O)[C@H](CC2CCOCC2)NC(=O)[C@H](CC2CCN(C(=O)CCOCCOCCOCCOCCNC(=O)CN3CCN(CC(=O)O)CCN(CC(=O)O)CCN(CC(=O)O)CC3)CC2)NC(=O)CNC(=O)[C@H](C(C)(C)C)NC1=O` [compound 382, Ac-hLeu-Y-C-Tbg-G-Pip(PEG4-DOTA)Ala-ThpA-D-V-Y-C-5FW-F-hydroxyVal-CONH2] (Ac-[hLeu]YC[Tle]G[Ala(piperidin-4-yl)]([PEG4-DOTA])[Ala(4-THP)]DVYC[Trp(5-F)]F[Val(3-OH)]-NH2; disulfide 3-11), under setting [2], the Kd was in the range of 1 to 10 nM. In turn, `CC(=O)N[C@@H](CCC(C)C)C(=O)N[C@@H](Cc1ccc(O)cc1)C(=O)N[C@H]1CSSC[C@@H](C(=O)N[C@@H](Cc2cccc3ccccc23)C(=O)N[C@@H](Cc2ccccc2)C(=O)N2CCC[C@@]2(C)C(=O)N[C@H](CCCCNC(=O)CN2CCN(CC(=O)O)CCN(CC(=O)O)CCN(CC(=O)O)CC2)C(N)=O)NC(=O)[C@H](Cc2ccc(O)cc2)NC(=O)[C@H](C(C)C)NC(=O)[C@H](CC(=O)O)NC(=O)[C@H](Cc2ccc(O)cc2)NC(=O)[C@H](CCCCN)NC(=O)CNC(=O)[C@H](C(C)C)NC1=O` [compound 247, Ac-hLeu-Y-C-V-G-K-Y-D-V-Y-C-1Nal-F-aMePro-dLys(DOTA)-CONH2] (Ac-[hLeu]YCVGKYDVYC[1Nal]F[αMeP][dK](DOTA)-NH2; disulfide 3-11) registered a Kd under setting [1] of 1 to 10 nM. The molecule `CC(=O)N[C@@H](CCC(C)C)C(=O)N[C@@H](Cc1ccc(O)cc1)C(=O)N[C@H]1CSSC[C@@H](C(=O)N[C@@H](Cc2c[nH]c3ccc(F)cc23)C(=O)N[C@@H](Cc2ccccc2)C(=O)N[C@H](C(=O)N[C@H](CCC(=O)O)C(N)=O)C(C)(C)O)NC(=O)[C@H](Cc2ccc(O)cc2)NC(=O)[C@H](C(C)C)NC(=O)[C@H](CC(=O)O)NC(=O)[C@H](CC2CCN(C(=O)CC[C@H](C(=O)O)N3CCN(CC(=O)O)CCN(CC(=O)O)CCN(CC(=O)O)CC3)CC2)NC(=O)[C@H](CC2CCNCC2)NC(=O)CNC(=O)[C@H](C(C)(C)C)NC1=O` [compound 460, Ac-hLeu-Y-C-Tbg-G-PipAla-Pip(R-DOTAGA)Ala-D-V-Y-C-5FW-F-hydroxyVal-dGlu-CONH2] (Ac-[hLeu]YC[Tle]G[Ala(piperidin-4-yl)][Ala(piperidin-4-yl)](X4)DVYC[Trp(5-F)]F[Val(3-OH)][dE]-NH2; disulfide 3-11) had a dissociation constant (Kd) under setting [2] of less than 1 nM.

Molecule `CC(C)CC[C@H](NC(=O)[C@@H]1CCC(=O)N1)C(=O)N[C@@H](Cc1ccc(O)cc1)C(=O)N[C@H]1CSSC[C@@H](C(=O)N[C@@H](Cc2c[nH]c3ccc(F)cc23)C(=O)N[C@H](C(=O)N[C@H](C(=O)N[C@H](CCCCNC(=O)CN2CCN(CC(=O)O)CCN(CC(=O)O)CCN(CC(=O)O)CC2)C(=O)O)C(C)(C)O)[C@@H](C)c2ccccc2)NC(=O)[C@H](Cc2ccc(O)cc2)NC(=O)[C@H](C(C)C)NC(=O)[C@H](CC(=O)O)NC(=O)[C@H](CC2CCOCC2)NC(=O)[C@H](CC2CCNCC2)NC(=O)CNC(=O)[C@H](C(C)(C)C)NC1=O` [compound 507, Pyroglutamate-hLeu-Y-C-Tbg-G-PipAla-ThpA-D-V-Y-C-5FW-[(2S, 3S)beta-Me-Phe]-hydroxyVal-dLys(DOTA)-COOH] ([pGlu][hLeu]YC[Tle]G[Ala(piperidin-4-yl)][Ala(4-THP)]DVYC[Trp(5-F)][X1][Val(3-OH)][dK](DOTA)-OH; disulfide 4-12) yielded a Kd under setting [2] of less than 1 nM.
